# Test results published in US6525001B1, “Substituted pyrimidine and pyridine herbicides” (Mid-American Commercialization Corporation, priority 1997, dated 2003).
# How the values were obtained:
# Type in all cases: in vivo
# [1] = system: bermudagrass (Cynodon dactylon); assay: Test E pre-/postemergence/post directed; conditions: PREEMERGENCE
# Text: (§1) Seeds, tubers, or plant parts of alexandergrass (Brachiaria plantaginea), annual bluegrass (Poa annua), arrowleaf sida (Sida rhombifolia), barnyardgrass (Echinochloa crus-galli), bermudagrass (Cynodon dactylon), citrus (Citrus sinensis), common chickweed (Stellaria media), common purslane (Portulaca oleracea), common ragweed (Ambrosia elatior), common groundsel (Senecio vulgaris), dallisgrass (Paspalum dilatatum), goosegrass (Eleusine indica), green foxtail (Setaria viridis), guineagrass (Panicum maximum), itchgrass (Rottboellia exaltata), johnson grass (Sorghum halepense), kochia (Kochia scoparia), large crabgrass (Digitaria sanguinalis), leafy spurge (Euphorbia esula), pitted morningglory (Ipomoea lacunosa), purple nutsedge (Cyperus rotundus), quackgrass (Agropyron repens), Russian thistle (Salsola kali), sandbur (Cenchrus echinatus), sourgrass (Trichachne insularis), Spanishneedles (Bidens bipinnata), sugarcane (Saccharum officinarum), surinam grass (Brachiaria decumbens) and tall mallow (Malva sylvestris) were planted into greenhouse pots of flats containing greenhouse planting medium. Plant species were grown grown in separate pots or individual compartments. Preemergence applications were made within one day of planting the seed or plant part. Postemergence applications were applied when the plants were in the two to four leaf stage (three to twenty cm).
# (§2) Test chemicals were formulated in a non-phytotoxic solvent mixture which included a surfactant and applied preemergence to the soil surface, postemergence to the plants or as a post directed spray to plants and soil at the base of the target species. Untreated control plants and treated plants were placed in the greenhouse and visually evaluated for injury 13 to 21 days after herbicide application. Plant response ratings, summarized in Table E, are based on a 0 to 100 scale where 0 is no injury and 100 is complete control. A dash (−) response means no test result.
# [2] = system: Spanishneedles (Bidens bipinnata); assay: Test E pre-/postemergence/post directed
# Text: as §1, §2
# [3] = system: alexandergrass (Brachiaria plantaginea); assay: Test E pre-/postemergence/post directed
# Text: as §1, §2
# [4] = system: large crabgrass (Digitaria sanguinalis); assay: Test E pre-/postemergence/post directed
# Text: as §1, §2
# [5] = system: johnson grass (Sorghum halepense); assay: Test E pre-/postemergence/post directed
# Text: as §1, §2
# [6] = system: sandbur (Cenchrus echinatus); assay: Test E pre-/postemergence/post directed; conditions: PREEMERGENCE
# Text: as §1, §2
# [7] = system: common ragweed (Ambrosia elatior); assay: Test E pre-/postemergence/post directed
# Text: as §1, §2
# [8] = system: sandbur (Cenchrus echinatus); assay: Test E pre-/postemergence/post directed; set-up: key: 0 is no injury; 100 is complete control
# Text: as §1, §2
# [9] = system: purple nutsedge (Cyperus rotundus); assay: Test E pre-/postemergence/post directed; set-up: key: 0 is no injury; 100 is complete control
# Text: as §1, §2
# [10] = system: sourgrass (Trichachne insularis); assay: Test E pre-/postemergence/post directed; set-up: key: 0 is no effect; 100 is complete control
# How it was run: (§3)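 Injury was scored visually on a 0 to 100 scale (100 = complete control) 13 to 21 days after treatment of greenhouse-grown plants. Test chemicals, in a surfactant-containing non-phytotoxic solvent, were sprayed onto soil within a day of planting, onto plants at the two to four leaf stage, or directed at the base of the plants.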
# [11] = system: bermudagrass (Cynodon dactylon); assay: Test E pre-/postemergence/post directed; set-up: key: 0 is no effect; 100 is complete control; conditions: PREEMERGENCE, Rate 250 g/ha
# How it was run: as §3
# [12] = system: goosegrass (Eleusine indica); assay: Test E pre-/postemergence/post directed; set-up: key: 0 is no effect; 100 is complete control
# How it was run: as §3
# [13] = system: common ragweed (Ambrosia elatior); assay: Test E pre-/postemergence/post directed; set-up: key: 0 is no effect; 100 is complete control; conditions: PREEMERGENCE, Rate 250 g/ha
# How it was run: as §3
# [14] = system: common groundsel (Senecio vulgaris); assay: Test E pre-/postemergence/post directed; set-up: key: 0 is no effect; 100 is complete control; conditions: PREEMERGENCE
# How it was run: as §3
# soybean (Glycine max) = assay: Test C; set-up: key: 0 was no effect; 100 was complete control; conditions: PREEMERGENCE
# [15] = system: cocklebur (Xanthium strumarium); assay: Test C; set-up: key: 0 was no effect; 100 was complete control; conditions: PREEMERGENCE
# [16] = system: hairy beggarticks (Bidens pilosa); assay: Test C; set-up: key: 0 was no effect; 100 was complete control; conditions: PREEMERGENCE
# [17] = system: wild poinsettia (Euphorbia heterophylla); assay: Test C; set-up: key: 0 was no effect; 100 was complete control; conditions: PREEMERGENCE
compound,measurement,setting,value
Cc1cnc(-n2cnc(C(F)(F)F)c2)nc1Cc1cccc(C(F)(F)F)c1 [Compound 44],"Plant response rating, Bermudagrass",[1]; Rate 32 g/ha,30
same,"Plant response rating, Bermudagrass",[1]; Rate 64 g/ha,80
same,"Plant response rating, Bermudagrass",[1]; Rate 125 g/ha,98
same,"Plant response rating, Spanishneedles","[2]; POSTEMERGENCE, Rate 125 g/ha",10
same,"Plant response rating, Spanishneedles","[2]; POSTEMERGENCE, Rate 250 g/ha",10
same,"Plant response rating, Spanishneedles","[2]; PREEMERGENCE, Rate 32 g/ha",20
same,"Plant response rating, Spanishneedles","[2]; PREEMERGENCE, Rate 64 g/ha",60
same,"Plant response rating, Spanishneedles","[2]; PREEMERGENCE, Rate 125 g/ha",70
same,"Plant response rating, Spanishneedles","[2]; PREEMERGENCE, Rate 250 g/ha",98
same,"Plant response rating, Alexandergrass","[3]; POSTEMERGENCE, Rate 125 g/ha",10
same,"Plant response rating, Alexandergrass","[3]; POSTEMERGENCE, Rate 250 g/ha",10
same,"Plant response rating, Alexandergrass","[3]; PREEMERGENCE, Rate 64 g/ha",40
same,"Plant response rating, Alexandergrass","[3]; PREEMERGENCE, Rate 125 g/ha",40
same,"Plant response rating, Alexandergrass","[3]; PREEMERGENCE, Rate 250 g/ha",50
same,"Plant response rating, Large crabgrass","[4]; POSTEMERGENCE, Rate 125 g/ha",10
same,"Plant response rating, Large crabgrass","[4]; POSTEMERGENCE, Rate 250 g/ha",10
same,"Plant response rating, Large crabgrass","[4]; PREEMERGENCE, Rate 64 g/ha",60
same,"Plant response rating, Large crabgrass","[4]; PREEMERGENCE, Rate 125 g/ha",70
same,"Plant response rating, Large crabgrass","[4]; PREEMERGENCE, Rate 250 g/ha",60
same,"Plant response rating, Johnsongrass","[5]; POSTEMERGENCE, Rate 125 g/ha",5
same,"Plant response rating, Johnsongrass","[5]; POSTEMERGENCE, Rate 250 g/ha",10
same,"Plant response rating, Johnsongrass","[5]; PREEMERGENCE, Rate 32 g/ha",30
same,"Plant response rating, Johnsongrass","[5]; PREEMERGENCE, Rate 125 g/ha",60
same,"Plant response rating, Johnsongrass","[5]; PREEMERGENCE, Rate 250 g/ha",75
same,"Plant response rating, Sandbur",[6]; Rate 64 g/ha,60
same,"Plant response rating, Sandbur",[6]; Rate 125 g/ha,70
same,"Plant response rating, Sandbur",[6]; Rate 250 g/ha,80
same,"Plant response rating, Com. ragweed","[7]; POSTEMERGENCE, Rate 125 g/ha",10
same,"Plant response rating, Com. ragweed","[7]; POSTEMERGENCE, Rate 250 g/ha",20
same,"Plant response rating, Com. ragweed","[7]; PREEMERGENCE, Rate 32 g/ha",40
same,"Plant response rating, Com. ragweed","[7]; PREEMERGENCE, Rate 64 g/ha",85
same,"Plant response rating, Com. ragweed","[7]; PREEMERGENCE, Rate 125 g/ha",98
same,"Plant response rating, Sandbur","[8]; POSTEMERGENCE, Rate 125 g/ha",0
same,"Plant response rating, Sandbur","[8]; POSTEMERGENCE, Rate 250 g/ha",0
same,"Plant response rating, Sandbur","[8]; PREEMERGENCE, Rate 32 g/ha",0
same,"Plant response rating, Purple nutsedge","[9]; POSTEMERGENCE, Rate 125 g/ha",0
same,"Plant response rating, Purple nutsedge","[9]; POSTEMERGENCE, Rate 250 g/ha",0
same,"Plant response rating, Purple nutsedge","[9]; PREEMERGENCE, Rate 32 g/ha",0
same,"Plant response rating, Purple nutsedge","[9]; PREEMERGENCE, Rate 64 g/ha",0
same,"Plant response rating, Purple nutsedge","[9]; PREEMERGENCE, Rate 125 g/ha",0
same,"Plant response rating, Purple nutsedge","[9]; PREEMERGENCE, Rate 250 g/ha",0
same,"Plant response rating, Sourgrass","[10]; POSTEMERGENCE, Rate 125 g/ha",10
same,"Plant response rating, Sourgrass","[10]; POSTEMERGENCE, Rate 250 g/ha",20
same,"Plant response rating, Sourgrass","[10]; PREEMERGENCE, Rate 32 g/ha",80
same,"Plant response rating, Sourgrass","[10]; PREEMERGENCE, Rate 64 g/ha",100
same,"Plant response rating, Sourgrass","[10]; PREEMERGENCE, Rate 125 g/ha",100
same,"Plant response rating, Sourgrass","[10]; PREEMERGENCE, Rate 250 g/ha",100
same,"Plant response rating, Bermudagrass",[11],100
same,"Plant response rating, Goosegrass","[12]; POSTEMERGENCE, Rate 125 g/ha",10
same,"Plant response rating, Goosegrass","[12]; POSTEMERGENCE, Rate 250 g/ha",20
same,"Plant response rating, Goosegrass","[12]; PREEMERGENCE, Rate 32 g/ha",98
same,"Plant response rating, Goosegrass","[12]; PREEMERGENCE, Rate 64 g/ha",98
same,"Plant response rating, Goosegrass","[12]; PREEMERGENCE, Rate 125 g/ha",98
same,"Plant response rating, Goosegrass","[12]; PREEMERGENCE, Rate 250 g/ha",100
same,"Plant response rating, Com. ragweed",[13],100
same,"Plant response rating, Com. groundsel",[14]; Rate 64 g/ha,100
same,"Plant response rating, Com. groundsel",[14]; Rate 125 g/ha,100
same,"Plant response rating, Com. groundsel",[14]; Rate 250 g/ha,100
Cc1cnc(-n2ccc(C(F)(F)F)n2)nc1C(=O)c1cccc(OC(F)(F)F)c1 [Compound 66],"Plant response rating, Soybean",soybean (Glycine max); Rate 35 g/ha,0
same,"Plant response rating, Soybean",soybean (Glycine max); Rate 70 g/ha,0
same,"Plant response rating, Soybean",soybean (Glycine max); Rate 140 g/ha,0
same,"Plant response rating, Cocklebur",[15]; Rate 35 g/ha,0
same,"Plant response rating, Cocklebur",[15]; Rate 70 g/ha,0
same,"Plant response rating, Cocklebur",[15]; Rate 140 g/ha,0
same,"Plant response rating, H. beggarticks",[16]; Rate 35 g/ha,0
same,"Plant response rating, H. beggarticks",[16]; Rate 70 g/ha,0
same,"Plant response rating, H. beggarticks",[16]; Rate 140 g/ha,0
same,"Plant response rating, Wild poinsettia",[17]; Rate 35 g/ha,0
same,"Plant response rating, Wild poinsettia",[17]; Rate 70 g/ha,0
same,"Plant response rating, Wild poinsettia",[17]; Rate 140 g/ha,0
